Here are results for two compounds from patent US20250368697A1, “MODIFIED PEPTIDE DERIVED FROM URECHIS UNICINCTUS IN PREPARATION OF DRUG FOR TREATING ALCOHOLIC LIVER DISEASE” (Beijing Institute of Petrochemical Technology, priority 2024, published 2025).

The subject of data set [1] is HepG2 cells. Briefly: Biochemical indicators (ALT, AST, TC, TG, HDL-C, LDL-C) in alcoholic damaged HepG2 cells. It is filed as cell-based, human. The conditions noted are these: 3 mM (positive control); 500 mM ethanol-damaged HepG2. The method, then: (§1) HepG2 cells are collected, digested, centrifuged, and resuspended. The HepG2 cells are then seeded into a 6-well plate at a density of 1×10^6 cells per well, with 1.6 mL of cell suspension added to each well. After incubating the plate in a 37° C., 5% CO2 incubator for 24 hours, 200 μL of distilled water is added to the blank wells as the blank group. Referring to Section 1.2.2.2 and the preparation of blank group cell sample, an anhydrous ethanol-induced damage model is established. The HepG2 cells are damaged with 500 mM anhydrous ethanol for 24 hours. The model group receives 200 μL of distilled water, while the positive control wells receive 200 μL of NAC at a final concentration of 3 mM. The treatment wells receive 200 μL of the modified peptide derived from Urechis unicinctus of F2-1 at final concentrations of 200 μM, 300 μM, and 400 μM (dissolved in water). After adding the modeling solution, the plate is incubated in a 37° C., 5% CO2 incubator for an additional 24 hours. The 6-well plate is then taken out and placed on ice. All liquids in the wells are discarded, and the cells are washed three times with pre-chilled phosphate buffer solution (PBS). High-efficiency radio immunoprecipitation assay (RIPA) lysis buffer is added, and the HepG2 cells are lysed on ice for 30 minutes. The lysates are then centrifuged at 12,000 rpm for 10 minutes at low temperature, and the white precipitate is discarded.
Reagent kits are purchased from Nanjing Jiancheng Bioengineering Institute. An enzyme-linked immunosorbent assay (ELISA) plate reader is used to measure biochemical indicators such as alanine aminotransferase (ALT), aspartate aminotransferase (AST), triglycerides (TG), total cholesterol (TC), high-density lipoprotein cholesterol (HDL-C), and low-density lipoprotein cholesterol (LDL-C).

The subject of data set [2] is Cytochrome P450 2E1 (CYP2E1). Briefly: CYP2E1 content in alcoholic damaged HepG2 cells (ELISA). The data set is classed as cell-based, human. The note with it: 500 mM ethanol-damaged HepG2. As for the experimental part:
as §1
(§2) ELISA kits are purchased from Hangzhou Leyi Biotechnology Co., Ltd. An ELISA plate reader is used to measure indicators such as the interleukin-1β (IL-1β) ELISA kit, interleukin-6 (IL-6) ELISA kit, and Cytochrome P450 2E1 (CYP2E1) ELISA kit.

Data set [3] concerns interleukin-1β (IL-1β). Put plainly: IL-1β content in alcoholic damaged HepG2 cells (ELISA). The data set is classed as cell-based, human. The note with it: 3 mM (positive control); 500 mM ethanol-damaged HepG2. As for the experimental part:
as §1, with “All liquids in the wells are discarded, and the cells are washed three times with pre-chilled phosphate buffer solution (PBS). High-efficiency radio immunoprecipitation assay (RIPA) lysis buffer is added, and the HepG2 cells are lysed on ice for 30 minutes. The lysates are then centrifuged at 12,000 rpm for 10 minutes at low temperature, and the white precipitate is discarded.” left out
as §2
(In general: An ELISA detects its analyte on a solid surface through an enzyme-linked reagent.)

The subject of data set [4] is interleukin-6 (IL-6). Put plainly: IL-6 content in alcoholic damaged HepG2 cells (ELISA). It is filed as cell-based, human. The note with it: 3 mM (positive control); 500 mM ethanol-damaged HepG2. As for the experimental part: as §1, with “All liquids in the wells are discarded, and the cells are washed three times with pre-chilled phosphate buffer solution (PBS). High-efficiency radio immunoprecipitation assay (RIPA) lysis buffer is added, and the HepG2 cells are lysed on ice for 30 minutes. The lysates are then centrifuged at 12,000 rpm for 10 minutes at low temperature, and the white precipitate is discarded.” left out
as §2

For data set [5], the system named is HepG2 cells. The data set is classed as cell-based. The note with it: human, 24 h. As for the experimental part:
When a cell density of the cells reached 90%, the cells are digested and passaged to form a single-cell suspension. The cell concentration is determined using a hemocytometer, and the suspension is adjusted to 8×10^4 cells per well. A volume of 180 μL of the cell suspension is added to each well of a 96-well plate. The 96-well plate is then incubated in a 37° C., 5% CO2 cell incubator for 24 hours. The cells are subjected to alcoholic damage for 24 hours using gradient concentrations of anhydrous ethanol at […] (final concentrations). A blank group received no addition. All solutions in the 96-well plate are aspirated, and 100 μL of a 10% CCK-8 solution is added to each well. After incubation for 1 hour, the absorbance is measured at 450 nanometers (nm) using a microplate reader. The cell viability is calculated using the following formula: […]
HepG2 cells are collected, digested, centrifuged, and resuspended. The HepG2cells are then seeded into a 96-well plate at a density of 8×10^4 cells per well, with 160 μL of cell suspension added to each well. After incubating the plate in a 37° C., 5% CO2 incubator for 24 hours, 20 μL of distilled water is added to a blank well as the blank group. Referring to Section 1.2.2.2 and the preparation of blank group cell sample, an anhydrous ethanol-induced damage model is established. The HepG2 cells are damaged with 500 mM anhydrous ethanol for 24 hours. The model group received 20 μL of distilled water, while the positive control wells received 20 μL of N-acetylcysteine (NAC) at a final concentration of 3 mM. The treatment wells receive 20 μL of the modified peptide derived from Urechis unicinctus of F2-1 at final concentrations of 200 μM, 300 μM, and 400 μM (dissolved in water). The 96-well plate is then incubated in a 37° C., 5% CO2 incubator for 24 hours after adding the modeling solution. […] The absorbance is measured at 450 nm using a microplate reader after 1 hour of incubation. The cell viability is calculated using the following formula: […]

Like-named read-outs stand apart in the source and are kept apart here. Where no end group is shown, it is not given here.

In general, cell viability refers to a read-out of living cells in per cent, often relative to untreated cells. Read a low cell viability as more harm to the cells.

Consider `CC(=O)N[C@@H](CS)C(=O)O` [NAC, N-acetylcysteine], for which, in data set [1], the “ALT level in HepG2 cells” value is given as 7.93±0.14 U/L, the “AST level in HepG2 cells” value is given as 8.26±0.30 U/L, the “HDL-C level in HepG2 cells” value worked out at 0.12 ± 0.02 mmol/L and the “LDL-C level in HepG2 cells” value stood at 0.01 ± 0.00 mmol/L. Besides, in data set [1], the “TC level in HepG2 cells” value was 0.06 ± 0.02 mmol/L and the “TG level in HepG2 cells” value turned out to be 0.49 ± 0.00 mmol/L. In addition, in data set [2] (3 mM (positive control)), the “CYP2E1 content in HepG2 cells” value was found to be 7.80±0.96 U/mg prot. In data set [3], the “IL-1β content in HepG2 cells” value worked out at 123.36 ± 1.67 pg/mL. For the same compound, in data set [4], the “IL-6 content in HepG2 cells” value was 87.25 ± 5.30 pg/mL.
On to IHVKF [F2-1, IHVKF], for which the results for the cell viability in data set [5] (200 μM), in data set [5] (300 μM) and in data set [5] (400 μM) were 80.65±5.67%, 85.39±9.61% and 94.58±4.22%, respectively. For the same compound, the “CYP2E1 content in HepG2 cells” value is listed as “do not significantly reduce” in data set [2] (200 μM (low dose), vs model group); “do not significantly reduce” in data set [2] (300 μM (medium dose), vs model group); 7.97±0.78 U/mg prot in data set [2] (400 μM (high dose)).
